# How the values were obtained:
# [1] = test system: 2D dhBMEC monolayers (ZO1); test: Immunocytochemistry of zona occludens-1 in 2D dhBMEC monolayers; format: cell-based, human
# Method: Antibodies used in the study are described in Table 3. LabTek 8-chamber slides (Cat. No. 155411, Thermo Fisher Scientific) were coated with 25 μg mL^−1 fibronectin and 50 μg mL^−1 collagen IV overnight at 37° C. BC1 cell were seeded in BBB induction medium at 5×10^5 cells cm^−2. On day 1 after seeding, dhBMECs were washed twice with BBB maintenance medium and incubated in the medium overnight. On day 2, the cells were washed twice with BBB maintenance medium and treated with 1.5 μM, 5 μM, and 10 μM of melittin, diluted in the medium, for 2 minutes, 5 minutes, 10 minutes, or 90 minutes. The resulting melittin dosages, calculated as the product of melittin concentration and incubation time, were 3 μM·minutes, 25 μM·minutes, 100 μM minutes, and 450 μM·minutes. A negative control without melittin was included with every experiment. After the melittin incubation, the cells were washed twice with 1×PBS azide and fixed in 3.7% paraformaldehyde solution for 10 minutes or methanol for 15 minutes. The fixed cells were washed with 1×PBS azide and incubated in blocking solution (10% goat serum, 0.3% TritonX-100 in 1×PBS azide) at 4° C. for 1-2 days. The cells were incubated with primary antibodies for 2 hours at room temperature. […]
# dhBMECs monolayers = test: Melittin-induced disruption of dhBMEC monolayers (transwell assay); format: cell-based, human
# Method: Induced pluripotent stem cell (iPSC)-derived brain microvascular endothelial cells (dhBMECs) mimic the barrier function of the human BBB. DhBMECs were differentiated as previously reported. The BC1 iPSC line derived from a healthy individual was used for all experiments. After eleven days of differentiation, cells were detached using Accutase (A1110501, Thermo Fisher Scientific), and seeded onto transwells, glass slides, or type I collagen microchannels coated overnight with 50 μg mL^−1 human placental collagen IV (Catalog Number (Cat. No.) C5533, Sigma-Aldrich) and 25 μg mL^−1 fibronectin from human plasma (Cat. No. F1141, Sigma-Aldrich). Cells have previously been characterized for expression of tight junction proteins, efflux pumps, and nutrient transporters as well as measurements of barrier function including transendothelial electrical resistance (TEER) or solute permeability. Here, cells with TEER of at least 1500 Ω cm2 were used for all experiments. After detachment, cells were cultured in BBB induction medium: human endothelial cell serum-free medium (HESFM) (Cat. No. 11111044, Thermo Fisher Scientific) supplemented with 1% human platelet poor derived serum (Cat. No. P2918, Sigma-Aldrich), 1% penicillin-streptomycin (Cat. No. 15140122, Thermo Fisher Scientific), 2 ng mL^−1 bFGF (Cat. No. 233FB025CF, Fisher Scientific), and 10 μM all-trans retinoic acid (Cat. No R2625, Sigma-Aldrich). After 24 hours, cells were further cultured in BBB maintenance medium: HESFM supplemented with 1% human platelet poor derived serum and 1% penicillin-streptomycin. Human cortical neuron HCN-2 cells (CRL-10742) were obtained from ATCC (Manassas, VA, USA). HCN-2 cells were cultured in DMEM (Cat. No. 31600091, Thermo Fisher Scientific), adjusted to contain 1.5 g L^−1 sodium bicarbonate, 4.5 g L^−1 D-glucose, and supplemented with 10% heat-inactivated FBS (Cat. No. F4135, Sigma-Aldrich), following ATCC recommendations.
# Corning transwell supports (Cat. No. 3470) were coated with 25 μg mL^−1 fibronectin and 50 μg mL^−1 collagen IV overnight at 37° C. DhBMECs were seeded on transwells in BBB induction medium at 10^6 cells cm^−2. […] On day 2, the TEER for monolayers was measured using EVOM-2 and STX-100 electrode (World Precision Instruments, Sarasota, FL), and monolayers with TEER>1500 Ω cm2 were used for the permeability experiment. […] After the permeability experiment, the TEER across monolayers was measured. Dextran fluorescence in the receiving chamber and in the initial apical solution (Co) was measured using the Synergy H4 plate reader (Biotek Instruments Inc., Winooski, VT) and was converted to dextran concentrations using the dextran-fluorescein standard curves. The apparent permeability (Papp) was calculated from Formula 1 below: […]
# [2] = Estimated systemic exposure after intra-arterial injection; format: in vivo, mouse
structure (smiles),measurement,setting,value
CC[C@H](C)[C@H](NC(=O)CN)C(=O)NCC(=O)N[C@@H](C)C(=O)N[C@H](C(=O)N[C@@H](CC(C)C)C(=O)N[C@@H](CCCCN)C(=O)N[C@H](C(=O)N[C@@H](CC(C)C)C(=O)N[C@H](C(=O)N[C@H](C(=O)NCC(=O)N[C@@H](CC(C)C)C(=O)N1CCC[C@H]1C(=O)N[C@@H](C)C(=O)N[C@@H](CC(C)C)C(=O)N[C@H](C(=O)N[C@@H](CO)C(=O)N[C@@H](Cc1c[nH]c2ccccc12)C(=O)N[C@H](C(=O)N[C@@H](CCCCN)C(=O)N[C@@H](CCCNC(=N)N)C(=O)N[C@@H](CCCCN)C(=O)N[C@@H](CCCNC(=N)N)C(=O)N[C@@H](CCC(N)=O)C(=O)N[C@@H](CCC(N)=O)C(N)=O)[C@@H](C)CC)[C@@H](C)CC)[C@@H](C)O)[C@@H](C)O)C(C)C)C(C)C [melittin],monolayer integrity,[1]; 450 μM·minute dose,significant cell detachment was observed
same,ZO1 protein expression compared to controls,[1]; doses of 3-100 μM·minute,did not result in large changes
same,concentrations for membrane activity,dhBMECs monolayers,1 to 10 µM
same,500 kDa dextran permeability across dhBMECs,"dhBMECs monolayers; 5 μM melittin for 90 minutes, transwell",increased
same,concentration above which disruption is induced in confluent monolayers,dhBMECs monolayers; confluent dhBMEC monolayers,above 1 μM
same,cell morphology (phase contrast),"dhBMECs monolayers; dhBMECs on glass slides, 5 μM melittin for 90 minutes",cell swelling and detachment
same,"systemic dose, fold lower than the LD50","[2]; 3 μM·min melittin, mouse weight of 20 g assumed",~50 fold
same,melittin concentration after dilution in the bloodstream,"[2]; 3 μM·min, 150 μL injection diluted into 1.2 mL of whole blood (assumed)",0.33 µM
same,reduction of melittin concentration upon exiting the brain,[2]; dilution in the bloodstream assumed,~10 fold

# — patent US20240009269A1 (priority 2020, published 2024)
